Consider 12 compounds from US20250171486A1, “N4-ISOBUTYRYLOXYCYTIDINE ANALOG SYNTHESIS AND COMPOSITION FOR TREATING VIRAL INFECTION COMPRISING ANTI-VIRAL USE THEREOF” (Dong-A University Research Foundation for Industry-Academy …, priority 2022, published 2025).

In data set [1] the test system is Influenza virus B/Lee/40 (Lee). As to the kind of experiment: microbe, parasite or virus in culture. It is filed as cell-based. Particulars: for EC50: read-out: Antiviral activity (EC50) Flu B Lee; for Selectivity index Flu B Lee: MDCK cells.
Data set [2] deals with Influenza virus A/Puerto Rico/8/34 (PR8; H1N1). The data set can be described thus: organism not typed. In kind it is cell-based. Particulars: for EC50: read-out: Antiviral activity (EC50) Flu A H1N1 PR8; for Selectivity index Flu A H1N1 PR8: MDCK cells.
In data set [3] the test system is Influenza virus A/Hong Kong/8/68 (HK: H3N2). As to the kind of experiment: organism not typed. Particulars: for Selectivity index Flu A H3H2 Hong Kong: MDCK cells; for EC50: read-out: Antiviral activity (EC50) Flu A H3N2 Hong Kong. It is filed as cell-based.
A short description of data set [4]: in vitro. The note with it: dog.
Data set [5] can be described thus: in vitro. Particulars: for CC50: African green monkey.
Data set [6] has as its system SARS-COV-2 (BetaCoV/Korea/KCDC03/2020). The data set can be described thus: Image-based anti-SARS-COV-2 assay in Vero cells (anti-spike antibody). It is filed as cell-based.
The next data set relates to DENV-2 replicon. As to the kind of experiment: microbe, parasite or virus in culture. It is filed as cell-based. Particulars: for S.I., Selectivity index = CC50/EC50: DENV-2, BHK-21 cells.
The test system of data set [7] is DENV-2 replicon BHK-21 (DENV2-BHK) cells. The data set can be described thus: MTT cytotoxicity assay in DENV-2 replicon BHK-21 cells. Particulars: for CC50: read-out: CC50, 50% cytotoxic concentration, BHK-21 cells, MTT.
The test system of the next data set is Vero cells. The note with it: for CC50: read-out: CC50, cytotoxicity, 2 days.
Data set [8] in a line: Cytotoxicity in mock-infected MDCK cells (MTT). The note with it: dog, mock-infected MDCK cells.
The nature of data set [9]: MTT cytotoxicity assay in DENV-2 replicon BHK-21 cells. Particulars: hamster.
The next data set deals with MDCK cells. As to the kind of experiment: Cytotoxicity in mock-infected MDCK cells (MTT). The note with it: read-out: Toxicity (CC50); MDCK cells, 3 days.
The mark [10] stands for this setting: unidentified influenza virus, MDCK, 72 h.
Where [11] appears, read: Severe acute respiratory syndrome coronavirus 2, Vero, 48 h.
Setting [12] is: Dengue virus, DENV2, BHK-21, read-out: EC50, 50% effective concentration, anti-DENV-2 activity.
The mark [13] stands for this setting: read-out: EC50, 50% effective concentration, anti-DENV-2 activity, DENV-2 replicon BHK-21 cells, luciferase.

Read-outs that look alike come from different tables or passages of the source.

Regarding `NC12CC3CC(CC(C3)C1)C2` [AMT, Amantadine], the EC50 was greater than 100 µM in data set [1] (setting [10]); greater than 100 µM in [2] (MDCK, 72 h); 6.4 µM in [3] (MDCK, 72 h). Further, in [3], the “Selectivity index Flu A H3H2 Hong Kong” value is listed as greater than 15.6. Further, the CC50 in the data set “in vitro [4]” was greater than 100 µM.
Regarding `CC(C)C(=O)ONc1ccn([C@@H]2O[C@H](CO)[C@@H](O)[C@H]2O)c(=O)n1` [Compound 5a, 1-((2R,3R,4S,5R)-3,4-Dihydroxy-5-(hydroxymethyl)tetrahydrofuran-2-yl)-4-((isobutyryloxy)amino)pyrimidin-2 (1H)-one], in data set [1], the “Selectivity index Flu B Lee” value is recorded as greater than 29.4. In addition, the EC50 worked out at 3.4 µM in data set [1] (setting [10]); 3.5 µM in data set [6] (setting [11]); 3.95 µM with DENV-2 replicon (setting [12]); 5.8 µM in data set [2] (MDCK, 72 h); 7.3 µM in [3] (MDCK, 72 h). The CC50 is greater than 100 µM in the data set “in vitro [5]” and 10.8 µM in data set [7]. The same compound came in with a CC50 at 2 days in the data set “in vitro [5]” (chlorocebus sabaeus) greater than 100 µM. For the same compound, the “Antiviral activity improved compared to the parent Compound 6” value in data set [6] (SARS-COV-2) was “about 5 times”. In addition, the “Antiviral activity improved over the other ester precursor 7” value in data set [6] (SARS-COV-2) is 3.5 fold. Also, the “S.I., Selectivity index = CC50/EC50” value with DENV-2 replicon is recorded as 2.74. Besides, the “EC50 value improved over the ester precursor 7” value with DENV-2 replicon (DENV-2 replicon) is “about 6 fold”. The “EC50 value increased compared to the parent Compound 6” value in the data set with DENV-2 replicon (DENV-2 replicon) is “about 2 fold”. Also, the “Cytotoxicity reduced compared to the parent Compound 6” value in [7] (DENV-2 replicon cells) is reported as 2 fold. In the data set with Vero cells (SARS-COV-2 test), the “Cytotoxicity improved compared to the parent Compound 6” value was no less than 6 times. In [2], the “Selectivity index Flu A H1N1 PR8” value was greater than 17.2. The compound also registered a CC50 at 3 days in data set [8] greater than 100 µM. The “Selectivity index Flu A H3H2 Hong Kong” value in data set [3] is greater than 13.7.
As for `O=c1nc(NCCO)ccn1[C@@H]1O[C@H](CO)[C@@H](O)[C@H]1O` [Compound 5b, 1-((2R,3R,4S,5R)-3,4-Dihydroxy-5-(hydroxymethyl)tetrahydrofuran-2-yl)-4-((2-hydroxyethyl)amino)pyrimidin-2 (1H)-one], the EC50 in data set [1] (setting [10]) is greater than 100 µM; in data set [6] (setting [11]), greater than 100 µM; in the data set on DENV-2 replicon (setting [12]), greater than 100 µM; in data set [2] (MDCK, 72 h), greater than 100 µM; in [3] (MDCK, 72 h) it was greater than 100 µM. Moreover, the CC50 (in “in vitro [5]”; in data set [9]) was greater than 100 µM each time. Also, in data set [6] (Vero cells), the “Biological SARS-COV-2 activity (in words)” value is on record as “did not show significant biological SARS-COV-2 activity”. Moreover, in the data set with DENV-2 replicon (DENV-2 replicon), the “Anti-DENV activity in replication assays (in words)” value is reported as “did not exhibit significant anti-DENV activity”. The “Anti-Flu A/B activity (in words)” value in data set [2] (Flu A (H1N1, H3N2) and Flu B together) is listed as “did not exhibit significant anti-Flu A/B activity”. Besides, in the data set “in vitro [4]”, the CC50 at 3 days is greater than 100 µM.
In the case of `CCOC(=O)CNc1ccn([C@@H]2O[C@H](CO)[C@@H](O)[C@H]2O)c(=O)n1` [Compound 5c, Ethyl(1-((2R,3R,4S,5R)-3,4-dihydroxy-5-(hydroxymethyl)tetrahydrofuran-2-yl)-2-oxo-1,2-dihydropyrimidin-4-yl)glycinate], the EC50 (in [1]; in data set [6]; in the data set with DENV-2 replicon (setting [13]); in data set [2]; in data set [3]) was greater than 100 µM in each case. Also, the CC50 (in [7]; with Vero cells; in the data set with MDCK cells) was greater than 100 µM each time.
Consider `CCOC(=O)[C@H](C)Nc1ccn([C@@H]2O[C@H](CO)[C@@H](O)[C@H]2O)c(=O)n1` [Compound 5d, Ethyl(1-((2R,3R,4S,5R)-3,4-dihydroxy-5-(hydroxymethyl)tetrahydrofuran-2-yl)-2-oxo-1,2-dihydropyrimidin-4-yl)-L-alaninate], for which the EC50 (in data set [1]; in data set [6]; in the data set with DENV-2 replicon (setting [13]); in data set [2]; in [3]) was greater than 100 µM in each case. The CC50 (in [7]; in the data set with Vero cells; in the data set on MDCK cells) was greater than 100 µM each time.
As for `CCOC(=O)[C@H](CC(C)C)Nc1ccn([C@@H]2O[C@H](CO)[C@@H](O)[C@H]2O)c(=O)n1` [Compound 5e, Ethyl(1-((2R,3R,4S,5R)-3,4-dihydroxy-5-(hydroxymethyl)tetrahydrofuran-2-yl)-2-oxo-1,2-dihydropyrimidin-4-yl)-L-leucinate], the EC50 (in [1]; in data set [6]; in the data set on DENV-2 replicon (setting [13]); in data set [2]; in data set [3]) was greater than 100 µM in each case. Also, the CC50 (in data set [7]; in the data set on Vero cells; with MDCK cells) was greater than 100 µM each time.
As to `CCOC(=O)[C@H](Cc1ccccc1)Nc1ccn([C@@H]2O[C@H](CO)[C@@H](O)[C@H]2O)c(=O)n1` [Compound 5f, Ethyl(1-((2R,3R,4S,5R)-3,4-dihydroxy-5-(hydroxymethyl)tetrahydrofuran-2-yl)-2-oxo-1,2-dihydropyrimidin-4-yl)-L-phenylalaninate], the EC50 (in data set [1]; in [6]; in the data set on DENV-2 replicon (setting [13]); in data set [2]; in data set [3]) was greater than 100 µM each time. In addition, the CC50 (in data set [7]; in the data set on Vero cells; in the data set on MDCK cells) was greater than 100 µM in each case.
For the compound `O=c1nc(NO)ccn1[C@@H]1O[C@H](CO)C(O)[C@@H]1O` (stereo partly drawn) [Compound 6, β-D-N^4-hydroxycytidine, reference compound], the EC50 is less than 1.2 µM in data set [1] (setting [10]); greater than 16.5 µM in data set [6] (setting [11]); 2.84 µM in the data set with DENV-2 replicon (setting [12]); 1.7 µM in data set [2] (MDCK, 72 h); 2.3 µM in data set [3] (MDCK, 72 h). Besides, the CC50 in the data set “in vitro [5]” came to 16.5 µM; in [9], 5.75 µM. In addition, in the data set on DENV-2 replicon, the “S.I., Selectivity index = CC50/EC50” value turned out to be 2.02. Also, the “Selectivity index Flu A H1N1 PR8” value in [2] is greater than 58.8. The “Selectivity index Flu A H3H2 Hong Kong” value in data set [3] is reported as greater than 43.5. The compound further came in with a CC50 at 3 days in the data set “in vitro [4]” greater than 100 µM.
`CC(C)C(=O)OC[C@H]1O[C@@H](n2ccc(NO)nc2=O)[C@@H](O)C1O` (stereo partly drawn) [Compound 7, reference compound]: in data set [1], the “Selectivity index Flu B Lee” value is greater than 4.2. For the same compound, the EC50 came to 23.8 µM in [1] (setting [10]); 11.8 µM in data set [6] (setting [11]); 23.4 µM in the data set with DENV-2 replicon (setting [12]); 6.6 µM in [2] (MDCK, 72 h); 6 µM in [3] (MDCK, 72 h). For the same compound, the CC50 in the data set “in vitro [5]” is greater than 100 µM; in data set [9], 42.2 µM. The “S.I., Selectivity index = CC50/EC50” value with DENV-2 replicon worked out at 1.81. Also, the “Selectivity index Flu A H1N1 PR8” value in [2] is reported as greater than 15.2. Further, in data set [8], the CC50 at 3 days was greater than 100 µM. For the same compound, in data set [3], the “Selectivity index Flu A H3H2 Hong Kong” value is recorded as greater than 16.7.
As for `NC(=O)c1nc(F)cnc1O` [Compound T-705, 6-fluoro-3-hydroxy-2-pyrazinecarboxamide, reference compound], in data set [1], the “Selectivity index Flu B Lee” value is given as greater than 13.2. For the same compound, the EC50 came to 7.6 µM in [1] (setting [10]); 3.2 µM in [2] (MDCK, 72 h); 8.5 µM in data set [3] (MDCK, 72 h). For the same compound, the CC50 at 3 days in [8] is greater than 100 µM.
For `NC(=O)c1ncn([C@@H]2O[C@H](CO)[C@@H](O)[C@H]2O)n1` [RBV, Ribavirin, reference compound], the EC50 in data set [1] (setting [10]) is 33.3 µM; in the data set with DENV-2 replicon (setting [12]) it was 1.16 µM. Moreover, the CC50 in data set [7] stood at 5.46 µM.
Take `CCC(CC)COC(=O)[C@H](C)N[P@](=O)(OC[C@H]1O[C@@](C#N)(c2ccc3c(N)ncnn23)[C@H](O)[C@@H]1O)Oc1ccccc1` [Remdesivir, reference compound]: in “in vitro [5]”, the CC50 is greater than 100 µM.
